Several values for one entry are separate records, joined by “and”; a condition that tells them apart may be missing. Identical values can stand only once. Inconclusive results and toxic doses are left out. Rule for the calls: active = survival T/C of 150% or more; inactive = T/C below 125% in these data.
Tested on: P388 leukemia ip, CD2F1 mice, survival T/C
Experiment: NCI In Vivo Anticancer Drug Screen. Data for tumor model P388 Leukemia (intraperitoneal) in CD2F1 (CDF1) mice
Details: endpoint: median survival time, higher = longer survival
In short: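 Mice carrying the transplanted tumor received test compound or vehicle. Survival was recorded in each group, and the value is the treated-group measurement divided by that of the vehicle-treated control group.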

[1] = dose: 12.5 mg/kg/injection, schedule: Q01DX009 (ip), vehicle: Klucel (hydroxypropylcellulose) (HPC)
[2] = dose: 25.0 mg/kg/injection, schedule: Q01DX009 (ip), vehicle: Klucel (hydroxypropylcellulose) (HPC)
[3] = dose: 50.0 mg/kg/injection, schedule: Q01DX009 (ip), vehicle: Klucel (hydroxypropylcellulose) (HPC)
[4] = dose: 100.0 mg/kg/injection, schedule: Q01DX009 (ip), vehicle: saline
[5] = dose: 200.0 mg/kg/injection, schedule: Q01DX009 (ip), vehicle: saline
[6] = dose: 400.0 mg/kg/injection, schedule: Q01DX009 (ip), vehicle: saline
[7] = dose: 60.0 mg/kg/injection, schedule: Q01DX005 (ip), vehicle: saline with Tween-80
[8] = dose: 120.0 mg/kg/injection, schedule: Q01DX005 (ip), vehicle: saline with Tween-80
[9] = dose: 50.0 mg/kg/injection, schedule: Q01DX005 (ip), vehicle: Klucel (hydroxypropylcellulose) (HPC)
[10] = dose: 100.0 mg/kg/injection, schedule: Q01DX005 (ip), vehicle: Klucel (hydroxypropylcellulose) (HPC)
[11] = dose: 200.0 mg/kg/injection, schedule: Q01DX005 (ip), vehicle: Klucel (hydroxypropylcellulose) (HPC)
[12] = dose: 100.0 mg/kg/injection, schedule: Q01DX009 (ip), vehicle: Klucel (hydroxypropylcellulose) (HPC)

Measured: T/C

COc1cc2c(cc1OC)C(C)(C)N(Cc1ccccc1)C(C)C2(C)C (stereo not given)
inactive: dose: 3.12 mg/kg/injection, schedule: Q01DX009 (ip), vehicle: Klucel (hydroxypropylcellulose) (HPC) 105 % of control | dose: 6.25 mg/kg/injection, schedule: Q01DX009 (ip), vehicle: Klucel (hydroxypropylcellulose) (HPC) 105 % of control | [1] 114 % of control | [2] 107 % of control | [3] 112 % of control

Oc1nc(-c2ccccc2)sc1-c1ccccc1
inactive: dose: 50.0 mg/kg/injection, schedule: Q01DX009 (ip), vehicle: saline with Tween-80 89 % of control | dose: 100.0 mg/kg/injection, schedule: Q01DX009 (ip), vehicle: saline with Tween-80 92 % of control | dose: 200.0 mg/kg/injection, schedule: Q01DX009 (ip), vehicle: saline with Tween-80 104 % of control

CC1=NNC(C)(C)C1
inactive: [4] 105 % of control | [5] 105 % of control | [6] 110 % of control

CCc1nc(N)nc(N)c1-c1ccc(N2CCNCC2)c([N+](=O)[O-])c1
inactive: [7] 106 % of control | [8] 112 % of control

CCC(=O)NC(N)=NC#N
inactive: dose: 60.0 mg/kg/injection, schedule: Q01DX005 (ip), vehicle: saline 99 % of control | dose: 120.0 mg/kg/injection, schedule: Q01DX005 (ip), vehicle: saline 101 % of control | dose: 240.0 mg/kg/injection, schedule: Q01DX005 (ip), vehicle: saline 98 % of control

Cc1cc2c3c(c1)C(C(F)(F)F)(C(F)(F)F)OI3OC2(C(F)(F)F)C(F)(F)F
inactive: dose: 25.0 mg/kg/injection, schedule: Q01DX005 (ip), vehicle: Klucel (hydroxypropylcellulose) (HPC) 95 % of control | [9] 95 % of control | [10] 96 % of control | [11] 97 % of control

Cc1c(NS(=O)(=O)c2ccccc2)c(C)c(NS(=O)(=O)c2ccccc2)c(C)c1NS(=O)(=O)c1ccccc1
inactive: dose: 50.0 mg/kg/injection, schedule: Q04DX003 (ip), vehicle: saline with Tween-80 100 % of control | dose: 100.0 mg/kg/injection, schedule: Q04DX003 (ip), vehicle: saline with Tween-80 90 % of control | dose: 200.0 mg/kg/injection, schedule: Q04DX003 (ip), vehicle: saline with Tween-80 90 % of control

CCOC(=O)\C(C#N)=C/C(C)=C/C(C)=C/Nc1ccc([N+](=O)[O-])cc1[N+](=O)[O-]
inactive: [9] 111 % of control | [10] 110 % of control | [11] 114 % of control

CSc1cccc(NC(=O)Oc2c(Cl)cccc2Cl)c1
inactive: dose: 50.0 mg/kg/injection, schedule: Q01DX009 (ip), vehicle: gum acacia 113 % of control | dose: 100.0 mg/kg/injection, schedule: Q01DX009 (ip), vehicle: gum acacia 111 % of control

CCN1/C(=C/C=C/C=C/c2oc3ccccc3[n+]2CC)Oc2ccccc21
inactive: dose: 0.78 mg/kg/injection, schedule: Q01DX009 (ip), vehicle: saline 104 % of control | dose: 1.56 mg/kg/injection, schedule: Q01DX009 (ip), vehicle: saline 104 % of control | dose: 3.12 mg/kg/injection, schedule: Q01DX009 (ip), vehicle: saline 110 % of control

COC(=O)CCSC(=O)Nc1ccc(Cl)cc1
inactive: [9] 105 % of control | [10] 101 % of control | [11] 113 % of control

COC(=O)C1CSC(c2c(COP(=O)(O)O)cnc(C)c2O)N1 (stereo not given)
inactive: dose: 100.0 mg/kg/injection, schedule: Q01DX001 (ip), vehicle: saline 103 % of control | dose: 200.0 mg/kg/injection, schedule: Q01DX001 (ip), vehicle: saline 105 % of control | dose: 400.0 mg/kg/injection, schedule: Q01DX001 (ip), vehicle: saline 96 % of control

CCOc1ccc2nc(NN=O)sc2c1
inactive: dose: 1.56 mg/kg/injection, schedule: Q01DX009 (ip), vehicle: water 100 % of control | dose: 3.12 mg/kg/injection, schedule: Q01DX009 (ip), vehicle: water 100 % of control and 95 % of control | dose: 6.25 mg/kg/injection, schedule: Q01DX009 (ip), vehicle: water 101 % of control and 98 % of control | dose: 12.5 mg/kg/injection, schedule: Q01DX009 (ip), vehicle: water 100 % of control and 104 % of control | dose: 25.0 mg/kg/injection, schedule: Q01DX009 (ip), vehicle: water 100 % of control and 101 % of control | dose: 50.0 mg/kg/injection, schedule: Q01DX009 (ip), vehicle: water 104 % of control

C[C@]12CCC(=O)C=C1CC[C@@H]1[C@@H]2C(=O)C[C@@]2(C)[C@H]1CC[C@]2(O)C(=O)C=O
inactive: [1] 111 % of control and 123 % of control | [2] 119 % of control | [3] 111 % of control and 120 % of control | [12] 102 % of control and 113 % of control

CCn1c(=S)[nH]c2sc3c(c2c1=O)CCCC3
inactive: [7] 92 % of control | [8] 89 % of control

CC(=O)CC(C)=O.CC(=O)CC(C)=O.CCCn1ccnc1.O=N[O-].[Co]
inactive: dose: 50.0 mg/kg/injection, schedule: Q01DX001 (ip), vehicle: saline with Tween-80 95 % of control | dose: 100.0 mg/kg/injection, schedule: Q01DX001 (ip), vehicle: saline with Tween-80 101 % of control and 93 % of control | dose: 200.0 mg/kg/injection, schedule: Q01DX001 (ip), vehicle: saline with Tween-80 99 % of control and 120 % of control | dose: 400.0 mg/kg/injection, schedule: Q01DX001 (ip), vehicle: saline with Tween-80 108 % of control

C=C1CC[C@H]2C(C)=CC[C@H]3C(=C)C(=O)O[C@@H]3[C@@H]12
inactive: dose: 5.0 mg/kg/injection, schedule: Q01DX009 (ip), vehicle: saline with Tween-80 90 % of control | dose: 10.0 mg/kg/injection, schedule: Q01DX009 (ip), vehicle: saline with Tween-80 91 % of control | dose: 20.0 mg/kg/injection, schedule: Q01DX009 (ip), vehicle: saline with Tween-80 97 % of control | dose: 40.0 mg/kg/injection, schedule: Q01DX009 (ip), vehicle: saline with Tween-80 95 % of control | dose: 100.0 mg/kg/injection, schedule: Q04DX002 (ip), vehicle: saline with Tween-80 107 % of control | dose: 200.0 mg/kg/injection, schedule: Q04DX002 (ip), vehicle: saline with Tween-80 112 % of control | dose: 400.0 mg/kg/injection, schedule: Q04DX002 (ip), vehicle: saline with Tween-80 102 % of control

CC(=O)OCC1OC2OC(C)(C)OC2C1O (stereo not given)
inactive: dose: 50.0 mg/kg/injection, schedule: Q01DX005 (ip), vehicle: saline 96 % of control | dose: 100.0 mg/kg/injection, schedule: Q01DX005 (ip), vehicle: saline 100 % of control | dose: 200.0 mg/kg/injection, schedule: Q01DX005 (ip), vehicle: saline 105 % of control

CN(C)c1ccc(N=Cc2cc[n+](C)cc2)cc1
inactive: dose: 6.25 mg/kg/injection, schedule: Q01DX009 (ip), vehicle: saline 114 % of control | dose: 12.5 mg/kg/injection, schedule: Q01DX009 (ip), vehicle: saline 101 % of control | dose: 25.0 mg/kg/injection, schedule: Q01DX009 (ip), vehicle: saline 105 % of control | dose: 25.0 mg/kg/injection, schedule: Q04DX003 (ip), vehicle: saline 100 % of control | dose: 50.0 mg/kg/injection, schedule: Q01DX009 (ip), vehicle: saline 111 % of control | dose: 50.0 mg/kg/injection, schedule: Q04DX003 (ip), vehicle: saline 107 % of control | dose: 100.0 mg/kg/injection, schedule: Q04DX003 (ip), vehicle: saline 107 % of control

COc1cc(COC(=O)c2ccc(CSc3ccc(Cl)cc3)o2)cc(OC)c1OC
inactive: dose: 50.0 mg/kg/injection, schedule: Q01DX005 (ip), vehicle: saline with Tween-80 99 % of control | dose: 100.0 mg/kg/injection, schedule: Q01DX005 (ip), vehicle: saline with Tween-80 99 % of control

CCOC(=O)NN(C(=O)OCC)c1c(NC)n(C)c(=O)n(C)c1=O
inactive: [3] 100 % of control | [12] 106 % of control | dose: 200.0 mg/kg/injection, schedule: Q01DX009 (ip), vehicle: Klucel (hydroxypropylcellulose) (HPC) 89 % of control

COc1ccc(/C=N/c2oc(-c3ccccc3)c(-c3ccccc3)c2-c2ccc(OC)cc2)cc1
inactive: dose: 12.5 mg/kg/injection, schedule: Q01DX005 (ip), vehicle: saline with Tween-80 92 % of control | dose: 25.0 mg/kg/injection, schedule: Q01DX005 (ip), vehicle: saline with Tween-80 87 % of control

CC(Br)C(=O)NC(Cc1ccccc1)C(=O)O (stereo not given)
inactive: [4] 99 % of control | [5] 103 % of control | [6] 89 % of control

Source: PubChem BioAssay AID330 (DTP/NCI, 2004)
